Measured values taken from the supplement of paper PMC10307832.

What was measured:
Assay in all cases: relative viability (nuclei count vs DMSO), 5 days (fraction); higher = more cells survive
FH535 + Navitoclax = compound: CC1=C(C=CC(=C1)[N+](=O)[O-])NS(=O)(=O)C2=C(C=CC(=C2)Cl)Cl [FH535] + CC1(C)CCC(c2ccc(Cl)cc2)=C(CN2CCN(c3ccc(C(=O)NS(=O)(=O)c4ccc(N[C@H](CCN5CCOCC5)CSc5ccccc5)c(S(=O)(=O)C(F)(F)F)c4)cc3)CC2)C1 [Navitoclax] (partner 0.5 µM)
Procedure, shortened: (§1)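 Relative viability was taken as the ratio of nuclei in treated wells to nuclei in vehicle wells. Lung cancer cell lines in 1536-well plates received compounds by pin tool one day after seeding, either one drug alone or a fixed anchor-drug dose plus five library-drug doses (not always all listed) in √10 steps. Nuclei were counted on 4× images after 5 days of treatment, and values are medians of duplicate plates.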

FH535 + Pictilisib = compound: CC1=C(C=CC(=C1)[N+](=O)[O-])NS(=O)(=O)C2=C(C=CC(=C2)Cl)Cl [FH535] + CS(=O)(=O)N1CCN(Cc2cc3nc(-c4cccc5[nH]ncc45)nc(N4CCOCC4)c3s2)CC1 [Pictilisib] (partner 1 µM)
Procedure, shortened: as §1

FH535 + Decitabine = compound: CC1=C(C=CC(=C1)[N+](=O)[O-])NS(=O)(=O)C2=C(C=CC(=C2)Cl)Cl [FH535] + Nc1ncn([C@H]2C[C@H](O)[C@@H](CO)O2)c(=O)n1 [Decitabine] (partner 2 µM)
Procedure, shortened: as §1

FH535 + OSI-027 = compound: CC1=C(C=CC(=C1)[N+](=O)[O-])NS(=O)(=O)C2=C(C=CC(=C2)Cl)Cl [FH535] + COc1cccc2cc(-c3nc([C@H]4CC[C@H](C(=O)O)CC4)n4ncnc(N)c34)[nH]c12 [OSI-027] (partner 0.5 µM)
Procedure, shortened: as §1

FH535 = compound: CC1=C(C=CC(=C1)[N+](=O)[O-])NS(=O)(=O)C2=C(C=CC(=C2)Cl)Cl [FH535]
Procedure, shortened: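 Only plates meeting two conditions passed: control CV below 25% and at least one doubling. Lung cancer cell lines, kept overnight at 37 °C in 1536-well plates, were pinned with five library-drug doses (not always all listed) √10 apart on vehicle-anchored plates and grown 5 days without medium change. A one-step fix, permeabilisation and Hoechst stain preceded 4× imaging and MetaXpress nuclear counting. Viability equals treated-well nuclei divided by vehicle-well nuclei, as the median over plates.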

Cell Line | relative viability (FH535 + Navitoclax; first compound 0.04 µM) | relative viability (FH535 + Navitoclax; first compound 0.1265 µM) | relative viability (FH535 + Navitoclax; first compound 0.4 µM) | relative viability (FH535 + Navitoclax; first compound 1.265 µM) | relative viability (FH535 + Pictilisib; first compound 0.04 µM) | relative viability (FH535 + Pictilisib; first compound 0.1265 µM) | relative viability (FH535 + Pictilisib; first compound 0.4 µM) | relative viability (FH535 + Pictilisib; first compound 1.265 µM) | relative viability (FH535 + Decitabine; first compound 0.04 µM) | relative viability (FH535 + Decitabine; first compound 0.1265 µM) | relative viability (FH535 + Decitabine; first compound 0.4 µM) | relative viability (FH535 + Decitabine; first compound 1.265 µM) | relative viability (FH535 + OSI-027; first compound 0.04 µM) | relative viability (FH535 + OSI-027; first compound 0.1265 µM) | relative viability (FH535 + OSI-027; first compound 0.4 µM) | relative viability (FH535 + OSI-027; first compound 1.265 µM) | relative viability (FH535; 0.04 µM) | relative viability (FH535; 0.1265 µM) | relative viability (FH535; 0.4 µM) | relative viability (FH535; 1.265 µM)
201T | 1.2 | 1.19 | 1.18 | 1.16 | 0.662 | 0.726 | 0.632 | 0.627 | 0.824 | 0.842 | 0.872 | 0.652 | 0.728 | 0.484 | 0.719 | 0.538 | 0.976 | 1 | 0.884 | 0.862
A-427 | 0.968 | 0.928 | 0.839 | 0.865 | 0.642 | 0.83 | 0.551 | 0.685 | 0.545 | 0.593 | 0.549 | 0.576 | 0.368 | 0.496 | 0.378 | 0.43 | 0.908 | 1.05 | 0.926 | 0.819
ABC-1 | – | – | – | – | 0.601 | 0.878 | 0.702 | 0.735 | 1.07 | 0.997 | 0.994 | 1.01 | 0.446 | 0.418 | 0.452 | 0.414 | 1 | 0.858 | 0.812 | 0.774
BEN | 0.0691 | 0.0603 | 0.0578 | 0.0625 | 0.548 | 0.617 | 0.459 | 0.41 | 0.676 | 0.703 | 0.573 | 0.498 | 0.287 | 0.281 | 0.313 | 0.27 | 0.92 | 0.946 | 0.862 | 0.653
CAL-12T | 1.16 | 1.11 | 1.12 | 0.654 | 0.392 | 0.362 | 0.29 | 0.334 | – | – | – | – | 0.63 | 0.688 | 0.504 | 0.407 | 0.989 | 0.977 | 0.819 | 0.591
COR-L23 | 0.992 | 1.14 | 0.886 | 0.567 | 0.734 | 0.816 | 0.624 | 0.531 | 0.302 | 0.424 | 0.444 | 0.314 | 0.778 | 0.621 | 0.643 | 0.408 | 0.98 | 1.03 | 0.842 | 0.573
COR-L 105 | 0.725 | 0.864 | 0.702 | 0.637 | 0.27 | 0.385 | 0.384 | 0.394 | 0.634 | 0.735 | 0.64 | 0.687 | 0.691 | 0.701 | 0.613 | 0.608 | 0.882 | 1.08 | 0.76 | 0.82
ChaGo-K-1 | 0.96 | 1.35 | 1.04 | 0.636 | 0.55 | 1.07 | 0.658 | 0.436 | 0.496 | 0.517 | 0.54 | 0.377 | 0.479 | 0.596 | 0.507 | 0.432 | 0.91 | 1.06 | 0.887 | 0.775
EKVX | 0.976 | 0.849 | 0.924 | 0.789 | 0.411 | 0.401 | 0.411 | 0.425 | 0.373 | 0.413 | 0.331 | 0.27 | 0.676 | 0.778 | 0.618 | 0.618 | 0.987 | 0.951 | 0.905 | 0.773
EMC-BAC-2 | 1.17 | 1.19 | 1.2 | 1.02 | 0.506 | 0.507 | 0.544 | 0.526 | 0.885 | 1 | 0.985 | 0.892 | 0.339 | 0.402 | 0.395 | 0.364 | 0.808 | 0.953 | 0.913 | 0.839
EPLC-272H | 1.04 | 1.22 | 1.07 | 0.926 | 0.263 | 0.349 | 0.299 | 0.249 | 0.328 | 0.4 | 0.412 | 0.377 | 0.27 | 0.296 | 0.279 | 0.238 | 0.838 | 0.934 | 0.796 | 0.774
H3255 | 0.514 | 0.338 | 0.416 | 0.26 | 0.352 | 0.466 | 0.445 | 0.413 | 0.541 | 0.625 | 0.63 | 0.456 | 0.564 | 0.583 | 0.648 | 0.505 | 0.953 | 0.945 | 0.955 | 0.745
HARA | 1.14 | 1.17 | 1.15 | 0.931 | 0.429 | 0.665 | 0.368 | 0.458 | 0.578 | 0.475 | 0.552 | 0.414 | 0.41 | 0.441 | 0.418 | 0.427 | 0.855 | 0.876 | 0.779 | 0.711
HCC-15 | 0.624 | 0.739 | 0.613 | 0.482 | 0.672 | 0.668 | 0.674 | 0.594 | 0.58 | 0.58 | 0.604 | 0.451 | 0.554 | 0.631 | 0.574 | 0.463 | 0.928 | 0.998 | 0.841 | 0.786
HCC-44 | 1.06 | 1.04 | 0.911 | 0.74 | 0.67 | 0.556 | 0.564 | 0.538 | 0.896 | 0.938 | 0.845 | 0.835 | 0.494 | 0.458 | 0.407 | 0.321 | 0.994 | 0.943 | 0.836 | 0.747
HCC-78 | 0.612 | 1.04 | 0.782 | 0.718 | 0.193 | 0.223 | 0.187 | 0.204 | 0.541 | 0.673 | 0.573 | 0.529 | 0.374 | 0.334 | 0.357 | 0.38 | 0.927 | 1 | 0.951 | 0.865
HCC-366 | 0.942 | 1.08 | 0.995 | 0.976 | 0.132 | 0.137 | 0.116 | 0.125 | 0.308 | 0.342 | 0.335 | 0.293 | 0.695 | 0.862 | 1.09 | 0.756 | 1 | 1.05 | 0.973 | 0.992
HCC-827 | 0.994 | 1.08 | 0.973 | 0.732 | 0.894 | 1 | 0.824 | 0.728 | 0.297 | 0.334 | 0.323 | 0.296 | 0.798 | 0.821 | 0.754 | 0.664 | 0.956 | 1.04 | 0.936 | 0.767
HOP-62 | 0.997 | 1.08 | 0.916 | 0.779 | 0.505 | 0.606 | 0.64 | 0.676 | 0.232 | 0.196 | 0.23 | 0.227 | 0.77 | 0.779 | 0.678 | 0.713 | 0.89 | 0.919 | 0.93 | 0.853
IA-LM | 0.917 | 0.621 | 0.593 | 0.496 | 0.328 | 0.396 | 0.389 | 0.303 | – | – | – | – | – | – | – | – | 0.963 | 0.864 | 0.868 | 0.713
LC-2-ad | 0.34 | 0.491 | 0.549 | 0.325 | 0.462 | 0.466 | 0.162 | 0.33 | 0.773 | 0.892 | 0.764 | 0.713 | 0.66 | 0.799 | 0.796 | 0.577 | 0.894 | 0.936 | 0.857 | 0.71
LCLC-97TM1 | – | 0.446 | 0.392 | 0.304 | – | 0.124 | 0.176 | 0.206 | 0.247 | 0.273 | 0.247 | 0.187 | 0.431 | 0.49 | 0.441 | 0.395 | 0.809 | 0.913 | 0.844 | 0.913
LCLC-103H | – | – | – | – | 0.598 | 0.608 | 0.561 | 0.535 | 0.672 | 0.787 | 0.718 | 0.503 | 0.448 | 0.383 | 0.341 | 0.42 | 0.919 | 1.03 | 0.901 | 0.753
NCI-H358 | – | – | – | – | 0.326 | 0.338 | 0.247 | 0.271 | 0.151 | 0.219 | 0.205 | 0.182 | 0.737 | 0.536 | 0.648 | 0.476 | 0.853 | 1.11 | 0.814 | 0.674
NCI-H522 | – | – | – | – | – | – | – | – | 0.588 | 0.697 | 0.712 | 0.698 | 0.7 | 0.767 | 0.734 | 0.636 | 0.875 | 0.894 | 0.856 | 0.825
NCI-H650 | – | – | – | – | 0.766 | 0.972 | 0.959 | 0.643 | 0.315 | 0.359 | 0.333 | 0.32 | 0.465 | 0.515 | 0.433 | 0.344 | 0.82 | 0.913 | 0.846 | 0.687
NCI-H661 | – | – | – | – | 0.473 | 0.381 | 0.392 | 0.536 | 0.546 | 0.609 | 0.566 | 0.46 | 0.688 | 0.704 | 0.67 | 0.46 | 1 | 1.01 | 0.955 | 0.637
NCI-H1703 | 1.28 | 1.18 | 1.21 | 0.88 | 0.195 | 0.213 | 0.257 | 0.219 | – | – | – | – | – | – | – | – | 0.958 | 0.848 | 0.929 | 0.768
NCI-H2228 | 0.826 | 1.1 | 0.841 | 0.728 | 0.327 | 0.416 | 0.369 | 0.305 | – | – | – | – | 0.487 | 0.71 | 0.658 | 0.522 | 0.884 | 1.01 | 0.985 | 0.896
SW 900 | – | – | – | – | – | – | – | – | 0.443 | 0.547 | 0.418 | 0.418 | 0.531 | 0.582 | 0.505 | 0.333 | 0.962 | 0.754 | 0.789 | 0.743
